# In patent US12515027B2, “Subcutaneous biodegradable reservoir device” (Research Triangle Institute, priority 2018, dated 2026):
# Where “and” joins values, the source holds several entries; their conditions need not be identical. Equal entries are not always repeated. Structures can show the parent of a compound that is named as a salt.
# How the values were obtained:
# [1] = Chromatographic purity (stability) of formulation inside implant after in-vitro exposure (UPLC/UV); format: physicochemical; conditions: after 180 days in simulated physiological conditions
# [2] = Solubility of active agents in excipients (saturated solutions, UPLC/UV)
# Protocol: Over a 24-hour period, the solutions were mixed periodically and returned to the water bath. After approximately 72 hours, the solutions were removed from the water bath and appearance recorded for each of the saturated solutions. […] The supernatants were prepared for analysis by UPLC. Triplicate weighed aliquots were prepared from the collected supernatants and analyzed for assay using a UPLC/UV method. The analysis was performed using a Waters BEH C18 column (2.1 mm×50 mm, 1.7 μm) under gradient, reversed phase conditions with detection at 260 nm. The saturated solutions were quantitated by linear regression analysis against a 5-point calibration curve.
# Testing using the same methodology was performed for EFdA, LNG, and ENG using various excipients.
# [3] = subcutaneous implant, up to 90 days
# Protocol: Testing was performed to evaluate the in vivo release profile of an exemplary device.
# [4] = subdermal silicone implant with PVA-coated channels, beagle dogs; cited from earlier work
# [5] = In vitro release from PCL reservoir implants in PBS pH 7.4 at 37 °C (UV-Vis); format: physicochemical; conditions: for release rate of TAF: first 30 days, normalized to 314 mm^2; for release rate of TAF from implant: summary b130; for TAF dosage (daily release rate): release over 35 days, FIG. 24; for Release Rates of TAF, Gamma-Irradiated: 18-24 kGy
# Protocol: The implants were incubated in 1×PBS (pH 7.4) at 37° C. Drug quantity released in media was measured via UV-Vis three times per week during which the implants were transferred to fresh buffer to maintain sink conditions. Drug concentrations were determined by correlating UV absorbance values to a standard curve. Standard curves involved measuring peak absorbance values as a function of drug concentrations diluted by half from bulk solutions. Peak absorbance values were determined by scanning the dilute drug solutions from 230 to 700 nm at a step size of 1 nm and assessing the maximum UV absorbance value.
# Testing was performed to evaluate release kinetics of varying formulations of active agent and excipient. In particular, the release mechanism and release profiles for TAF formulated with varying mass quantities of castor oil from extruded PCL tubes was evaluated. Heat extruded PCL devices were fabricated (2.5 mm×40 mm) using 80 kDa Sigma grade PCL. […] For the in vitro release studies, devices were incubated in 40 mL of phosphate buffered saline (PBS) at pH 7.4 in a shaking incubator at 37° C. The implants were transferred to fresh buffer three times per week to maintain sink conditions.
# Testing was performed to evaluate the in vitro release profile for an exemplary segmented device. In-vitro conditions included a simulated physiological media of a salt solution at pH between 6.5 and 7.5 at a temperature of 37° C. The exemplary device was engineered to release two APIs simultaneously, both at zero-order release kinetics. The device was fabricated with a segmented architecture that contained LNG formulated with ethyl oleate at a 1:4 ratio and EFdA formulated with castor oil at a 1:1 ratio and housed in separate compartments within a single implant design. Different segment lengths, polymer membrane thicknesses and polymer properties were tested.
# In vitro release characterization involved incubation of the implants in 40 mL 1× phosphate buffered saline (PBS) (pH 7.4) at 37° C. and placed on an orbital shaker. […] The release buffer was sampled three times per week during which the devices were transferred to 40 mL of fresh buffer to maintain sink conditions. TAF quantity released in each PBS buffer during the time interval was calculated and cumulative mass of drug release as a function of time was determined.
smiles,measurement,setting,value
"CC(C)OC(=O)[C@H](C)N[P@](=O)(CO[C@H](C)Cn1cnc2c(N)ncnc21)Oc1ccccc1 [TAF, Tenofovir Alafenamide Fumarate]",chromatographic purity of TAF remaining in implant,[1],89.2±0.8%
same,solubility at 72 h,"[2]; 37 °C, oil or lipid, thermodynamic from solid",3900 µg/mL
same,solubility of TAF within four different excipients,"[2]; sesame oil, castor oil, oleic acid, PEG 600, FIG. 8",most soluble in oleic acid and PEG600
same,reactivity at the site of the implant,[3],minimal reactivity
same,duration of drug delivery,[4],40 days
same,release rate of TAF,"[5]; 2:1 TAF:castor oil, 45 μm wall",0.91 ± 0.23 mg/day
same,release rate of TAF,"[5]; 2:1 TAF:castor oil, 70 μm wall",0.61 ± 0.09 mg/day
same,release rate of TAF,"[5]; 2:1 TAF:castor oil, 100 μm wall",0.29 ± 0.05 mg/day
same,release rate of TAF,"[5]; 2:1 TAF:castor oil, 150 μm wall",0.19 ± 0.04 mg/day
same,release rate of TAF,"[5]; 2:1 TAF:castor oil, 200 μm wall",0.15 ± 0.03 mg/day
same,initial release rate,[5]; 4:1 TAF-castor oil formulation,0.2 mg/day
same,initial release rate,[5]; 5:1 TAF-castor oil formulation,0.4 mg/day
same,release rate of TAF from implant,[5]; 45 μm PCL wall,approximately 0.8 mg/day
same,TAF dosage (daily release rate),"[5]; 45 μm wall thickness, 2:1 TAF:castor oil",0.78 ± 0.03 mg/day
same,release rate of TAF from implant,[5]; 200 μm PCL wall,~0.2 mg/day
same,TAF dosage (daily release rate),"[5]; 200 μm wall thickness, 2:1 TAF:castor oil",0.13 ± 0.01 mg/day
same,"Release Rates of TAF, Non-Irradiated","[5]; PC-12, 70 μm wall",0.37 ± 0.05 mg/day
same,"Release Rates of TAF, Gamma-Irradiated","[5]; PC-12, 70 μm wall",0.30 ± 0.03 mg/day
same,"Release Rates of TAF, Non-Irradiated","[5]; PC-12, 100 μm wall",0.20 ± 0.03 mg/day
same,"Release Rates of TAF, Gamma-Irradiated","[5]; PC-12, 100 μm wall",0.20 ± 0.02 mg/day
same,"Release Rates of TAF, Non-Irradiated","[5]; Sigma-PCL, 70 μm wall",0.62 ± 0.09 mg/day
same,"Release Rates of TAF, Gamma-Irradiated","[5]; Sigma-PCL, 70 μm wall",0.54 ± 0.06 mg/day
same,"Release Rates of TAF, Non-Irradiated","[5]; Sigma-PCL, 100 μm wall",0.29 ± 0.05 mg/day
same,"Release Rates of TAF, Gamma-Irradiated","[5]; Sigma-PCL, 100 μm wall",0.32 ± 0.03 mg/day
same,Measured release rates for full sized device,"[5]; TAF castor oil devices (1:1, 2:1, 3:1), PCL wall 70 μm, 2.5 mm x 40 mm",0.7 mg/day and 0.7 ± 0.08 mg/day
same,Measured release rates for full sized device,"[5]; TAF castor oil devices, PCL wall 100 μm",0.38 ± 0.04 mg/day
same,Measured release rates for full sized device,"[5]; TAF castor oil devices, PCL wall 200 μm",0.22 ± 0.01 mg/day
same,"J, drug released from the membrane per unit area per unit time","[5]; TAF castor oil, 70 μm, surface area 314 mm^2",0.002 mg/day/mm^2
same,start of depletion,"[5]; TAF:castor oil 1:1, 70 μm, 2.5 mm x 40 mm",76 days
same,start of depletion,"[5]; TAF:castor oil 2:1, 70 μm, 2.5 mm x 40 mm",83 days
same,TAF remaining within the implant,"[5]; after 180 days in vitro, payload approximately 115 mg",approximately 68 mg
same,sustained release rate of TAF,"[5]; over the course of 180 days in vitro, 2:1 TAF:castor oil, 100 μm wall, 2.5 mm OD x 40 mm",0.25 ± 0.03 mg/day
same,duration of zero-order release from segmented implants,[5]; segmented implants of TAF with LNG or ENG,50 days
